Source: patent US9877962B2, “Piperazinyl derivatives for the treatment of cancer” (priority 2011, dated 2018)

Experiments:
[1] = test system: 3 human cancer cell lines established from Head & Neck (HNSCC); test: MTT cell proliferation assay on HNSCC cell lines; type: cell-based; conditions: MTT assay after 72 hours of treatment, FIG. 2
Method: (§1) Compound I-43b has been tested in 3 human cancer cell lines established from Head & Neck (HNSCC) and in 4 human cancer cell lines established hepatocarcinoma (HCC). […] Cell proliferation has been evaluated using the MTT assay after 72 hours of treatment.

[2] = test system: 4 human cancer cell lines established hepatocarcinoma (HCC); test: MTT cell proliferation assay on HCC cell lines; type: cell-based; conditions: MTT assay after 72 hours of treatment, FIG. 2
Method: as §1

NCI 60 cell lines = test: NCI 60 tumor cell line panel (SRB); type: cell-based, human; conditions: concentration of 10 μM, 48 h, FIG. 3
Method: Compound I-43b has been tested in the NCI 60 cell line panel. This screen utilizes 60 different human tumor cell lines, representing leukemia, melanoma, lung cancer, colon cancer, CNS cancer, ovarian cancer, breast cancer, prostate cancer and renal cancer.
The 60 human tumor cell lines of the cancer screening panel are grown in RPMI 1640 medium containing 5% fetal bovine serum and 2 mM L-glutamine. For a typical screening experiment, cells are inoculated into 96 well microtiter plates in 100 μL at plating densities ranging from 5,000 to 40,000 cells/well depending on the doubling time of individual cell lines. […]
Following drug addition, the plates are incubated for an additional 48 h at 37° C., 5% CO2, 95% air, and 100% relative humidity. […] Bound stain is subsequently solubilized with 10 mM trizma base, and the absorbance is read on an automated plate reader at a wavelength of 515 nm. […] Using the seven absorbance measurements [time zero (Tz), control growth (C), and test growth in the presence of drug at the five concentration levels (Ti)], the percentage growth is calculated at each of the drug concentrations levels. Percentage growth inhibition is calculated as: [(Ti−Tz)/(C−Tz)]×100 for concentrations for which Ti>/=Tz [(Ti−Tz)/Tz]×100 for concentrations for which Ti<Tz.
Three dose response parameters are calculated for each experimental agent. […]

Cc1cc(Oc2ccccc2)ccc1N(C(=O)CCl)[C@H](C(=O)N1CCN[C@@H](C)C1)c1cccs1 (single isomer, unassigned) [Example I-43b]
cell proliferation inhibition, HNSCC cell lines [1]: inhibited cell proliferation in a concentration dependent manner | cell proliferation inhibition, HCC cell lines [2]: inhibited cell proliferation in a concentration dependent manner | growth inhibition of NCI 60 tumor cell lines, single dose screen (NCI 60 cell lines): selective growth inhibition on all these tumor cell lines
